Measurements from patent US20020035061A1, “COMPOSITIONS AND METHODS FOR TREATING INFECTIONS USING CATIONIC PEPTIDES ALONE OR IN COMBINATION WITH ANTIBIOTICS” (priority 1996, published 2002).
“And” between values parts separate entries of the source, which are not always exact repeats. Identical values can stand only once.

Tests used:
Type in all cases: cell-based
Candida = test: Agarose dilution assay (MIC) against Candida
[1] = system: E. coli strain ML-35 inner membrane
[2] = system: DoHH-2, B-cell cell lymphoma; test: Cell death by Cytotox (Promega) lactate dehydrogenase release; settings: LDH release
Outline: (§1)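 Read-out: LDH released from damaged cells. Compounds are APO-peptides alongside the corresponding parent peptides; non-tumour PBL and HUVEC were run next to cancer lines.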

[3] = system: K562, chronic myelogenous leukemia; test: as above; settings: LDH release
Outline: as §1

a bacterial strain = test: Killing curves, combination of cationic peptide and antibiotic agent; settings: in combination with vancomycin, FIG. 3E
Method: As used herein, “synergy” refers to the in vitro effect of administration of a combination of a cationic peptide and antibiotic agent such that (I) the fractional inhibitory concentration (FIC) is less than or equal to 0.5 in an FIC assay described herein; or (2) there is at least a 100-fold (21og10) increase in killing at 24 hours for the combination as compared with the antibiotic agent alone in a time kill curve assay as described herein.
Time kill curves resulting from combination of cationic peptide and antibiotic agent are compared to that resulting from agent alone.
The assay is performed as described above except that duplicate tubes are set up for each concentration of the antibiotic agent alone and of the combination of antibiotic agent and cationic peptide.

tolerant organisms = test: Overcoming tolerance: MBC and MIC by agarose dilution, antibiotic alone and with peptide; settings: combination of Vancomycin and peptide, organisms of Table 18

ILRWPWWPWRRK [MBI 11B7CN]
MIC (Candida; C. albicans CA001): 64 µg/mL
MIC (Candida; C. albicans CA002): 32 µg/mL
MIC (Candida; C. albicans CA003): 64 µg/mL
MIC (Candida; C. albicans CA004): 32 µg/mL
MIC (Candida; C. albicans CA005): 32 µg/mL
MIC (Candida; C. albicans CA006): 64 µg/mL
MIC (Candida; C. albicans CA007): 64 µg/mL
MIC (Candida; C. albicans CA008): 32 µg/mL
MIC (Candida; C. albicans CA009): 32 µg/mL
MIC (Candida; C. albicans CA010): 64 µg/mL
MIC (Candida; C. albicans CA011): 64 µg/mL
MIC (Candida; C. albicans CA012): 64 µg/mL
MIC (Candida; C. albicans CA013): 64 µg/mL
MIC (Candida; C. albicans CA014): 32 µg/mL
MIC (Candida; C. albicans CA015): 64 µg/mL
MIC (Candida; C. albicans CA016): 64 µg/mL
MIC (Candida; C. albicans CA017): 64 µg/mL
MIC (Candida; C. albicans CA018): 64 µg/mL
MIC (Candida; C. albicans CA019): 64 µg/mL
MIC (Candida; C. albicans CA020): 32 µg/mL
MIC (Candida; C. albicans CA021): 32 µg/mL
MIC (Candida; C. albicans CA022): 32 µg/mL
MIC (Candida; C. albicans CA023): 64 µg/mL
MIC (Candida; C. albicans CA024): 8 µg/mL
MIC (Candida; C. glabrata CGL001): 128 µg/mL
MIC (Candida; C. glabrata CGL002): 128 µg/mL
MIC (Candida; C. glabrata CGL003): 128 µg/mL
MIC (Candida; C. glabrata CGL004): 128 µg/mL
MIC (Candida; C. glabrata CGL005): 128 µg/mL
MIC (Candida; C. glabrata CGL009): 128 µg/mL
MIC (Candida; C. glabrata CGL010): 128 µg/mL
MIC (Candida; C. krusei CKR001): 1 µg/mL
MIC (Candida; C. tropicalis CTR001): 4 µg/mL
MIC (Candida; C. tropicalis CTR002): 8 µg/mL
MIC (Candida; C. tropicalis CTR003): 8 µg/mL
MIC (Candida; C. tropicalis CTR004): 8 µg/mL
MIC (Candida; C. tropicalis CTR005): 4 µg/mL
MIC (Candida; C. tropicalis CTR006): 8 µg/mL
MIC (Candida; C. tropicalis CTR007): 8 µg/mL
MIC (Candida; C. tropicalis CTR008): 4 µg/mL
MIC (Candida; C. tropicalis CTR009): 4 µg/mL
time of maximum activity in growth cycle [1]: 140 min and 230 min
LC50 ± S.E., DoHH-2 [2]: 16.5 ± 3 µg/mL
LC50 ± S.E., K562 [3]: 34 ± 25 µg/mL

KWKSFIKKLTSAAKKVVTTAKPLISS [MBI 26]
killing by combination compared with peptide or antibiotic agent alone (a bacterial strain): greater killing than either peptide or antibiotic agent alone
tolerance (MBC:MIC) to Vancomycin (tolerant organisms): overcomes the tolerance
